Values of other authors as cited in patent US7914812B2, “Wound care dressing and method using same” (priority 2004, dated 2011).

Conditions: for solubility: at about 37° C., i.e. body temperature, water

Compound: OC[C@@H](O)[C@@H](O)CO [Erythritol]
- Solubility ww % (25° C.): 36 ww %

Compound: OC[C@@H](O)[C@@H](O[C@H]1O[C@H](CO)[C@@H](O)[C@H](O)[C@H]1O)[C@H](O)[C@@H](O)CO [Maltitol]
- Solubility ww % (25° C.): 60 ww %

Compound: OC[C@@H](O)[C@@H](O[C@@H]1O[C@H](CO)[C@H](O)[C@H](O)[C@H]1O)[C@H](O)[C@@H](O)CO [Lactitol]
- Solubility ww % (25° C.): 58 ww %

Compound: OC[C@@H](O)[C@@H](O)[C@H](O)[C@@H](O)CO [Sorbitol]
- Solubility ww % (25° C.): 72 ww %

Compound: OC[C@@H](O)[C@@H](O)[C@H](O)[C@H](O)CO [Mannitol]
- Solubility ww % (25° C.): 18 ww %
- solubility: about 23 grams per 100 grams of water

Compound: OC[C@@H](O)[C@H](O)[C@@H](O)CO [Xylitol]
- Solubility ww % (25° C.): 66 ww %

Compound: OC[C@H]1O[C@@](CO)(O[C@H]2O[C@H](CO)[C@@H](O)[C@H](O)[C@H]2O)[C@@H](O)[C@@H]1O [sucrose]
- solubility: about 78 grams per 100 grams of water

Compound: Isomalt
- Solubility ww % (25° C.): 28 ww %
